Series [1] relates to HBV. Kind of series: Determination of HBV DNA from the supernatants of HepAD38 cells (anti-HBV activity). The format is cell-based, hepatitis B virus. The conditions noted are these: Hepatitis B virus, HePAD38, 144 h, HBV DNA in HepAD38 supernatant, day 6, qPCR; read-out: Cell Activity. The gist of the method:
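HepAD38 cells (60,000/well) seeded in tetracycline-free medium to induce HBV, treated with half-log serial compound dilutions for 6 days at 37 °C. HBV DNA purified from filtered supernatant and quantified by real-time PCR against HBV plasmid standards; EC50 from relative copy numbers by non-linear regression.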
Background: Quantitative PCR measures a nucleic acid by following its amplification.

Series [2] in a line: Cell viability assay (AlamarBlue). As to conditions: human, HepAD38 cells. On the technique in general: The colour change of resazurin is a common sign of viable cells or microbes.
Series [3] concerns the target HBV core protein (C-terminal truncated core protein containing 149 amino acids of the N-terminal assembly domain) (UniProt P03146). The series is described as follows: Biochemical capsid assembly assay (fluorescence quenching). As to conditions: read-out: Assembly Activity; BODIPY-FL labelled core protein, assembly started with NaCl, read after 6 min. The arrangement: rows headed: Assembly Activity; other: BODIPY-FL labelled core protein, assembly started with NaCl, read after 6 min. The essentials:
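N-terminal assembly domain (residues 1–149) plus C-terminal Cys150, E. coli-expressed, BODIPY-FL-maleimide labelled, used at 1.0–2.0 μM in 50 mM HEPES pH 7.5 with 0.5% DMSO. Assembly started with NaCl ([…]); fluorescence quenching (ex 477/em 525 nm) read after 6 min. 8-point compound series; EC50 by non-linear regression.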

Sequence of HBV core protein (C-terminal truncated core protein containing 149 amino acids of the N-terminal assembly domain) (P03146 whole entry, the tested form may be a part): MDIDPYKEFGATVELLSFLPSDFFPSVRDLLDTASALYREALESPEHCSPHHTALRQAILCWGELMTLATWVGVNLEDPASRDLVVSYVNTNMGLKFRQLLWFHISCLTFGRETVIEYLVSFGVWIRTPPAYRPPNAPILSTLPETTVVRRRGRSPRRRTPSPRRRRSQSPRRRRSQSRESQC

In the case of `O=C(c1cc2ccccc2[nH]1)N1CCn2ncc(S(=O)(=O)N3CCOCC3)c2C1` [Example 38, 2-[3-(morpholine-4-sulfonyl)-4H,5H,6H,7H-pyrazolo[1,5-a]pyrazine-5-carbonyl]-1H-indole], the EC50 in series [1] was under 1 µM. The half-maximal cytotoxic concentration (CC50) at 6 days in series [2] is over 10 µM. The IC50 in series [3] is under 5 µM.

For `O=C(c1cc2ccccc2[nH]1)N1CCn2ncc(S(=O)(=O)N3CCCC3)c2C1` [Example 39, 2-[3-(pyrrolidine-1-sulfonyl)-4H,5H,6H,7H-pyrazolo[1,5-a]pyrazine-5-carbonyl]-1H-indole], the EC50 in series [1] is under 1 µM. The compound further came in with a CC50 at 6 days in series [2] of over 10 µM. In addition, in series [3], the IC50 was under 5 µM.

Turning to `CN(C)S(=O)(=O)c1cnn2c1CN(C(=O)c1cc3ccccc3[nH]1)CC2` [Example 40, 5-(1H-indole-2-carbonyl)-N,N-dimethyl-4H,5H,6H,7H-pyrazolo[1,5-a]pyrazine-3-sulfonamide], the EC50 in series [1] was under 1 µM. The CC50 at 6 days in series [2] is over 10 µM. For the same compound, the IC50 in series [3] is under 5 µM.

On to `CNS(=O)(=O)c1cnn2c1CN(C(=O)c1cc3ccccc3[nH]1)CC2` [Example 41, 5-(1H-indole-2-carbonyl)-N-methyl-4H,5H,6H,7H-pyrazolo[1,5-a]pyrazine-3-sulfonamide], for which, in series [1], the EC50 was under 1 µM. The CC50 at 6 days in series [2] is over 10 µM. For the same compound, the IC50 in series [3] is under 5 µM.

For `O=C(c1cc2ccccc2[nH]1)N1CCn2ncc(C(=O)N3CC4C(C3)C4(F)F)c2C1` (stereo not drawn) [Example 42, 2-(3-{6,6-difluoro-3-azabicyclo[3.1.0]hexane-3-carbonyl}-4H,5H,6H,7H-pyrazolo[1,5-a]pyrazine-5-carbonyl)-1H-indole], the EC50 in series [1] is under 1 µM. The CC50 at 6 days in series [2] is over 10 µM. Also, in series [3], the IC50 is under 5 µM.

`O=C(c1cc2ccccc2[nH]1)N1CCn2ncc(C(=O)N3CC4CC4C3)c2C1` (stereo not drawn) [Example 43, 2-(3-{3-azabicyclo[3.1.0]hexane-3-carbonyl}-4H,5H,6H,7H-pyrazolo[1,5-a]pyrazine-5-carbonyl)-1H-indole]: the EC50 in series [1] is under 100 µM. Further, the cytotoxic concentration (CC50) at 6 days in series [2] is over 10 µM. The IC50 in series [3] was under 5 µM.

For the compound `CN(Cc1ccccn1)C(=O)c1cnn2c1CN(C(=O)c1cc3ccccc3[nH]1)CC2` [Example 44, 5-(1H-indole-2-carbonyl)-N-methyl-N-[(pyridin-2-yl)methyl]-4H,5H,6H,7H-pyrazolo[1,5-a]pyrazine-3-carboxamide], the EC50 in series [1] is under 1 µM. In series [2], this compound showed a 50% cytotoxic concentration (CC50) at 6 days of over 10 µM. Besides, the IC50 in series [3] was under 5 µM.

On to `O=C(c1cc2ccccc2[nH]1)N1CCn2ncc(C3(O)CCC3)c2C1` [Example 45, 1-[5-(1H-indole-2-carbonyl)-4H,5H,6H,7H-pyrazolo[1,5-a]pyrazin-3-yl]cyclobutan-1-ol], for which the EC50 in series [1] is 1 to 10 µM. The CC50 at 6 days in series [2] is over 10 µM. Further, the IC50 in series [3] lay in the range of 5 to 10 µM.

As for `CN(C(=O)c1cnn2c1CN(C(=O)c1cc3ccccc3[nH]1)CC2)C1(c2ccncc2)CC1` [Example 46, 5-(1H-indole-2-carbonyl)-N-methyl-N-[1-(pyridin-4-yl)cyclopropyl]-4H,5H,6H,7H-pyrazolo[1,5-a]pyrazine-3-carboxamide], the EC50 in series [1] is under 1 µM. The CC50 at 6 days in series [2] is over 10 µM. For the same compound, the IC50 in series [3] is under 5 µM.

For the compound `CN(C(=O)c1cnn2c1CN(C(=O)c1cc3ccccc3[nH]1)CC2)C1(c2ncccn2)CC1` [Example 47, 5-(1H-indole-2-carbonyl)-N-methyl-N-[1-(pyrimidin-2-yl)cyclopropyl]-4H,5H,6H,7H-pyrazolo[1,5-a]pyrazine-3-carboxamide], the EC50 in series [1] was under 1 µM. The compound further yielded a CC50 at 6 days in series [2] of over 10 µM. In addition, in series [3], the IC50 is under 5 µM.

With `O=C(c1cc2ccccc2[nH]1)N1CCn2ncc(C(=O)N3CCC4CC43)c2C1` (stereo not drawn) [Example 48, 2-(3-{2-azabicyclo[3.1.0]hexane-2-carbonyl}-4H,5H,6H,7H-pyrazolo[1,5-a]pyrazine-5-carbonyl)-1H-indole], in series [1], the EC50 fell in the range of 1 to 10 µM. This compound also displayed a CC50 at 6 days in series [2] of over 10 µM. Besides, the IC50 in series [3] is under 5 µM.

On to `O=C(c1cc2ccccc2[nH]1)N1CCn2ncc(N3CC4(CC4)CC3=O)c2C1` [Example 49, 5-[5-(1H-indole-2-carbonyl)-4H,5H,6H,7H-pyrazolo[1,5-a]pyrazin-3-yl]-5-azaspiro[2.4]heptan-6-one], for which the EC50 in series [1] was under 1 µM. In series [2], the CC50 at 6 days is over 10 µM. The IC50 in series [3] was under 5 µM.

As for `COCC1(NC(=O)c2cnn3c2CN(C(=O)c2cc4ccccc4[nH]2)CC3)CC1` [Example 50, 5-(1H-indole-2-carbonyl)-N-[1-(methoxymethyl)cyclopropyl]-4H,5H,6H,7H-pyrazolo[1,5-a]pyrazine-3-carboxamide], the EC50 in series [1] is under 1 µM. In series [2], this compound registered a CC50 at 6 days of over 10 µM. The IC50 in series [3] is under 5 µM.

With `O=C(c1cc2ccccc2[nH]1)N1CCn2ncc(C3(O)CC(c4ccccc4)C3)c2C1` (stereo not drawn) [Example 51, 1-[5-(1H-indole-2-carbonyl)-4H,5H,6H,7H-pyrazolo[1,5-a]pyrazin-3-yl]-3-phenylcyclobutan-1-ol], in series [1], the EC50 fell in the range of 1 to 10 µM. The same compound displayed a CC50 at 6 days in series [2] of over 10 µM. Besides, in series [3], the IC50 was in the range of 5 to 10 µM.

Turning to `CN(CCO)C(=O)c1cnn2c1CN(C(=O)c1cc3c(Cl)cccc3[nH]1)CC2` [Example 52, 5-(4-chloro-1H-indole-2-carbonyl)-N-(2-hydroxyethyl)-N-methyl-4H,5H,6H,7H-pyrazolo[1,5-a]pyrazine-3-carboxamide], the EC50 in series [1] was under 1 µM. In series [2], this compound came in with a half-maximal cytotoxic concentration (CC50) at 6 days of over 10 µM. Further, the IC50 in series [3] was under 5 µM.

As for `CN(C(=O)c1cnn2c1CN(C(=O)c1cc3ccccc3[nH]1)CC2)C1(CNCC(F)F)CC1` [Example 53, N-(1-{[(2,2-difluoroethyl)amino]methyl}cyclopropyl)-5-(1H-indole-2-carbonyl)-N-methyl-4H,5H,6H,7H-pyrazolo[1,5-a]pyrazine-3-carboxamide], the EC50 in series [1] was under 1 µM. In series [2], this compound had a cytotoxic concentration (CC50) at 6 days of over 10 µM. Further, in series [3], the IC50 was under 5 µM.

Regarding `O=C(NCCOC(F)F)c1cnn2c1CN(C(=O)c1cc3ccccc3[nH]1)CC2` [Example 54, N-[2-(difluoromethoxy)ethyl]-5-(1H-indole-2-carbonyl)-4H,5H,6H,7H-pyrazolo[1,5-a]pyrazine-3-carboxamide], in series [1], the EC50 was in the range of 1 to 10 µM. This compound returned a 50% cytotoxic concentration (CC50) at 6 days in series [2] of over 10 µM. Moreover, the IC50 in series [3] is under 5 µM.

As for `CN(Cc1ccnn1C)C(=O)c1cnn2c1CN(C(=O)c1cc3ccccc3[nH]1)CC2` [Example 55, 5-(1H-indole-2-carbonyl)-N-methyl-N-[(1-methyl-1H-pyrazol-5-yl)methyl]-4H,5H,6H,7H-pyrazolo[1,5-a]pyrazine-3-carboxamide], the EC50 in series [1] was under 1 µM. Further, in series [2], the 50% cytotoxic concentration (CC50) at 6 days is over 10 µM. For the same compound, in series [3], the IC50 was under 5 µM.

Turning to `O=C(c1cc2ccccc2[nH]1)N1CCn2ncc(C(=O)N3CCC(F)(F)C34CC4)c2C1` [Example 56, 2-(3-{7,7-difluoro-4-azaspiro[2.4]heptane-4-carbonyl}-4H,5H,6H,7H-pyrazolo[1,5-a]pyrazine-5-carbonyl)-1H-indole], the EC50 in series [1] was under 1 µM. For the same compound, the CC50 at 6 days in series [2] was over 10 µM. In addition, the IC50 in series [3] was under 5 µM.

As to `CN(C(=O)c1cnn2c1CN(C(=O)c1cc3ccccc3[nH]1)CC2)C1(c2cocn2)CC1` [Example 57, 5-(1H-indole-2-carbonyl)-N-methyl-N-[1-(1,3-oxazol-4-yl)cyclopropyl]-4H,5H,6H,7H-pyrazolo[1,5-a]pyrazine-3-carboxamide], the EC50 in series [1] was under 1 µM. The compound also registered a 50% cytotoxic concentration (CC50) at 6 days in series [2] of over 10 µM. Moreover, in series [3], the IC50 was under 5 µM.

On to `O=C(c1cc2ccccc2[nH]1)N1CCn2ncc(C(=O)N3CCC(O)CC34CC4)c2C1` (stereo not drawn) [Example 58, 4-[5-(1H-indole-2-carbonyl)-4H,5H,6H,7H-pyrazolo[1,5-a]pyrazine-3-carbonyl]-4-azaspiro[2.5]octan-7-ol], for which the EC50 in series [1] is under 1 µM. Besides, in series [2], the CC50 at 6 days is over 10 µM. In addition, the IC50 in series [3] is under 5 µM.

As to `O=C(c1cc2ccccc2[nH]1)N1CCn2ncc(C(=O)N3CCC(OC(F)F)CC34CC4)c2C1` (stereo not drawn) [Example 59, 2-{3-[7-(difluoromethoxy)-4-azaspiro[2.5]octane-4-carbonyl]-4H,5H,6H,7H-pyrazolo[1,5-a]pyrazine-5-carbonyl}-1H-indole], the EC50 in series [1] was under 1 µM. Further, the CC50 at 6 days in series [2] was over 10 µM. Further, in series [3], the IC50 was under 5 µM.

In the case of `O=C(c1cc2ccccc2[nH]1)N1CCn2ncc(C(=O)N(C3CC3)C3CC3)c2C1` [Example 60, N,N-dicyclopropyl-5-(1H-indole-2-carbonyl)-4H,5H,6H,7H-pyrazolo[1,5-a]pyrazine-3-carboxamide], the EC50 in series [1] was under 1 µM. In series [2], this compound gave a CC50 at 6 days of over 10 µM. For the same compound, the IC50 in series [3] was under 5 µM.

With `O=C(NC1(c2ccccn2)CC1)c1cnn2c1CN(C(=O)c1cc3ccccc3[nH]1)CC2` [Example 61, 5-(1H-indole-2-carbonyl)-N-[1-(pyridin-2-yl)cyclopropyl]-4H,5H,6H,7H-pyrazolo[1,5-a]pyrazine-3-carboxamide], the EC50 in series [1] is under 1 µM. The CC50 at 6 days in series [2] is over 10 µM. For the same compound, in series [3], the IC50 is under 5 µM.

The term CC50 denotes the concentration giving 50% cytotoxicity. A lower CC50 goes with harm at low concentration.

Source of the values: patent US20220363686A1 (AiCuris GmbH & Co. KG, priority 2018, published 2022).
